Reference: US20030044413A1, “Methods of limiting apoptosis of cells” (Regents of the University of Minnesota, priority 1998, published 2003)

Legend:
Bax = assay: Western blot, liver of bile acid fed rats: Bax; assay type: in vivo, rat; conditions: DCA feeding
Method: Animals and Diets. Male 160-175 g Sprague-Dawley rats (Sprague-Dawley, Indianapolis, Ind.), were maintained on a 12 h light-dark cycle and fed standard laboratory chow ad libitum for 3 days. The animals were then transferred to metabolic cages and fed diets of standard laboratory chow supplemented with either no bile acid or 0.4% (wt/wt) DCA, 0.4% UDCA, or a combination of DCA+UDCA (Bio-Serv, Frenchtown, N.J.). On day 10, the animals were sacrificed by exsanguination under ether anesthesia between 9 a.m. and 11 a.m. The livers were removed, rinsed in normal saline, and flash-frozen in liquid nitrogen until western blot analyses of apoptosis-related proteins were performed. All animals received humane care in compliance with the Guide for the Care and Use of Laboratory Animals, prepared by the National Academy of Sciences (NIH Publication No. 86-23, revised 1985).
Western Blot Analysis. Cytoplasmic proteins were isolated from rat liver tissue as described previously (Trembley et al., Cell Growth & Differ., 7, 903-916 (1996)). […] Cytoplasmic and mitochondrial protein concentrations were determined using the Bio-Rad protein assay (Bio-Rad Laboratories). […]
Densitometry. […] Quantitation of the autoradiograms was performed using the NIH Image 1.4 densitometric analysis program.

[1] = tested on: hepatocytes, HuH-7, Hep G2 and Saos-2 cells; assay: Coadministration of UDCA with each apoptosis-inducing agent, all cell types; assay type: cell-based
Method: Incubation of cells with bile acids. […] The medium was gently removed at the indicated time points and scored for nonviable cells by trypan blue dye exclusion. The attached cells were fixed for morphologic assessment of apoptotic changes. […] HuH-7 cells were incubated with Dulbecco's medium supplemented with either 1 nM TGF-β1 (R & D Systems, Minneapolis, Minn.), 100 μM UDCA, TGF-β1+UDCA, or no addition (control) for 24 h, 48 h, and 72 h. Hep G2 cells were incubated with Dulbecco's medium supplemented with either 0.5 μg/ml of anti-Fas antibody CH-11 (Upstate Biotechnology, Inc., Lake Placid, N.Y.), 100 μM UDCA, CH-11+UDCA, or no addition for 48 h. […] Morphological evaluation of apoptosis. Morphology was performed as described previously (Oberhammer et al., Proc. Natl. Acad. Sci. USA 89, 5408-5412 (1992)). […] Fluorescence was visualized with a Zeiss standard fluorescence microscope (Carl Zeiss, Inc., Thornwood, N.Y.). Photographs were taken with Kodak Ektar-1000 film (Eastman Kodak Co.). Stained nuclei were scored by blind analysis and categorized according to the condensation and staining characteristics of chromatin. Normal nuclei were identified as noncondensed chromatin dispersed over the entire nucleus. Apoptotic nuclei were identified by condensed chromatin, contiguous to the nuclear membrane, as well as nuclear fragmentation of condensed chromatin.

[2] = Nuclear bile acid concentration in livers of fed rats; assay type: in vivo, rat
Hep G2 cells = assay: Anti-Fas antibody-induced apoptosis, Hep G2 cells; assay type: cell-based
Method: Incubation of cells with ethanol, TGF-β1, anti-Fas antibody or okadaic acid. Freshly isolated rat hepatocytes were cultured for 3 h as described above and then incubated with William's E medium supplemented with either 0.5% ethanol, 50 μM UDCA, ethanol plus UDCA, or no addition (control) for 2 h and 4 h. HuH-7 cells were incubated with Dulbecco's medium supplemented with either 1 nM TGF-β1 (R & D Systems, Minneapolis, Minn.), 100 μM UDCA, TGF-β1+UDCA, or no addition (control) for 24 h, 48 h, and 72 h. Hep G2 cells were incubated with Dulbecco's medium supplemented with either 0.5 μg/ml of anti-Fas antibody CH-11 (Upstate Biotechnology, Inc., Lake Placid, N.Y.), 100 μM UDCA, CH-11+UDCA, or no addition for 48 h. Both HuH-7 cells and human osteogenic sarcoma Saos-2 cells were cultured in Dulbecco's medium supplemented with either 50 nM okadaic acid (Boehringer Mannheim Biochemicals, Inc, Indianapolis, Ind.), 100 μM UDCA, okadaic acid+UDCA, or no addition for 48 h. […]
Morphological evaluation of apoptosis. […] Fluorescence was visualized with a Zeiss standard fluorescence microscope (Carl Zeiss, Inc., Thornwood, N.Y.). […] Stained nuclei were scored by blind analysis and categorized according to the condensation and staining characteristics of chromatin. […] Three fields per dish of approximately 500 nuclei were counted; mean values are expressed as the percent of apoptotic nuclei.

Row | SMILES | increase in mitochondrial-associated Bax (Bax) | inhibition of apoptotic changes [1] | share of the total nuclear bile acid concentration ([2]; UDCA feeding) | concentration in nuclei relative to cytoplasmic levels ([2]; livers from control and DCA fed rats) | cells exhibiting apoptotic changes (Hep G2 cells; 0.5 μg/ml CH-11 or 100 μM UDCA alone, 48 h) | Inhibition % Apoptosis (Hep G2 cells; inducer CH-11, Hep G2, inhibition by UDCA)
1 | C[C@H](CCC(=O)O)[C@H]1CC[C@H]2[C@@H]3CC[C@@H]4C[C@H](O)CC[C@]4(C)[C@H]3C[C@H](O)[C@]12C [DCA, deoxycholic acid] | 4.5 fold |  |  |  |  | 
2 | C[C@H](CCC(=O)O)[C@H]1CC[C@H]2[C@@H]3[C@@H](O)C[C@@H]4C[C@H](O)CC[C@]4(C)[C@H]3CC[C@]12C [UDCA, ursodeoxycholic acid] |  | 50-100% | 91.4% | > 20 fold | 0.7% | 83.2 ± 7.0%
